Source: patent publication US20240300980A1, “HETEROCYCLIC COMPOUNDS AS KRAS INHIBITOR, AND PREPARATION THEREFOR AND USE THEREOF IN TREATMENT” (SHANGHAI KECHOW PHARMA, INC., priority 2021, published 2024)

Each compound was assayed on AGS cells (KRAS^G12D) (assay: Detection of cell proliferation in vitro by MTT/MTS method (cell activity experiment)). Conditions: Homo sapiens, AGS, 72 h, AGS cells; MTT/MTS; 3 days of drug treatment; read-out: AGS IC50.
Assay type: cell-based
In short: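 KRAS G12D AGS cells seeded at 1000 per well, compound added 24 h later, 0.5% final DMSO. Viability read after 3 days of treatment by MTT (solubilised in DMSO) or MTS, 4 h, absorbance 490 nm. IC50 from dose–response curves versus DMSO control.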

SMILES | IC50 [nM]
C#Cc1c(F)ccc2cc(O)cc(-c3ccc4c(N5C[C@H]6CC[C@@H](C5)N6)c(C#N)c(OC[C@@]56CCCN5C[C@H](F)C6)nc4c3)c12 [Example 171, 4-((1R,5S)-3,8-diazabicyclo[3.2.1]octan-3-yl)-7-(8-ethynyl-7-fluoro-3-hydroxynaphthalen-1-yl)-2-(((2R,7aS)-2-fluorotetrahydro-1H-pyrrolizin-7a(5H)-yl)methoxy)quinoline-3-carbonitrile] | 1240
CCc1c(F)ccc2cc(O)cc(-c3ccc4c(N5C[C@H]6CC[C@@H](C5)N6)c(C#N)c(OC[C@@]56CCCN5C[C@H](F)C6)nc4c3)c12 [Example 172, 4-((1R,5S)-3,8-diazabicyclo[3.2.1]octan-3-yl)-7-(8-ethyl-7-fluoro-3-hydroxynaphthalen-1-yl)-2-(((2R,7aS)-2-fluorotetrahydro-1H-pyrrolizin-7a(5H)-yl)methoxy)quinoline-3-carbonitrile] | 1230
C#Cc1cccc2cc(O)cc(-c3ccc4c(N5C[C@H]6CC[C@@H](C5)N6)c(C#N)c(OC[C@@]56CCCN5C[C@H](F)C6)nc4c3)c12 [Example 173, 4-((1R,5S)-3,8-diazabicyclo[3.2.1]octan-3-yl)-7-(8-ethynyl-3-hydroxynaphthalen-1-yl)-2-(((2R,7aS)-2-fluorotetrahydro-1H-pyrrolizin-7a(5H)-yl)methoxy)quinoline-3-carbonitrile] | 1450
CCc1cccc2cc(O)cc(-c3ccc4c(N5C[C@H]6CC[C@@H](C5)N6)c(C#N)c(OC[C@@]56CCCN5C[C@H](F)C6)nc4c3)c12 [Example 174, 4-((1R,5S)-3,8-diazabicyclo[3.2.1]octan-3-yl)-7-(8-ethyl-3-hydroxynaphthalen-1-yl)-2-(((2R,7aS)-2-fluorotetrahydro-1H-pyrrolizin-7a(5H)-yl)methoxy)quinoline-3-carbonitrile] | 1460
N#Cc1c(OC[C@@]23CCCN2C[C@H](F)C3)nc2cc(-c3cc(O)cc4ccc(F)c(F)c34)ccc2c1N1C[C@H]2CC[C@@H](C1)N2 [Example 175, 4-((1R,5S)-3,8-diazabicyclo[3.2.1]octan-3-yl)-7-(7,8-difluoro-3-hydroxynaphthalen-1-yl)-2-(((2R,7aS)-2-fluorotetrahydro-1H-pyrrolizin-7a(5H)-yl)methoxy)quinoline-3-carbonitrile] | 1330
N#Cc1c(OC[C@@]23CCCN2C[C@H](F)C3)nc2cc(-c3cc(O)cc4cccc(F)c34)ccc2c1N1C[C@H]2CC[C@@H](C1)N2 [Example 176, 4-((1R,5S)-3,8-diazabicyclo[3.2.1]octan-3-yl)-7-(8-fluoro-3-hydroxynaphthalen-1-yl)-2-(((2R,7aS)-2-fluorotetrahydro-1H-pyrrolizin-7a(5H)-yl)methoxy)quinoline-3-carbonitrile] | 1340
C#Cc1c(F)ccc2cc(O)cc(-c3ccc4c(N5C[C@H]6CC[C@@H](C5)N6)c(C#N)c(OC[C@@]56CCCN5C[C@H](F)C6)nc4c3F)c12 [Example 177, 4-((1R,5S)-3,8-diazabicyclo[3.2.1]octan-3-yl)-7-(8-ethynyl-7-fluoro-3-hydroxynaphthalen-1-yl)-8-fluoro-2-(((2R,7aS)-2-fluorotetrahydro-1H-pyrrolizin-7a(5H)-yl)methoxy)quinoline-3-carbonitrile] | 530
CCc1c(F)ccc2cc(O)cc(-c3ccc4c(N5C[C@H]6CC[C@@H](C5)N6)c(C#N)c(OC[C@@]56CCCN5C[C@H](F)C6)nc4c3F)c12 [Example 178, 4-((1R,5S)-3,8-diazabicyclo[3.2.1]octan-3-yl)-7-(8-ethyl-7-fluoro-3-hydroxynaphthalen-1-yl)-8-fluoro-2-(((2R,7aS)-2-fluorotetrahydro-1H-pyrrolizin-7a(5H)-yl)methoxy)quinoline-3-carbonitrile] | 535
N#Cc1c(OC[C@@]23CCCN2C[C@H](F)C3)nc2c(F)c(-c3cc(O)cc4ccc(F)c(F)c34)ccc2c1N1C[C@H]2CC[C@@H](C1)N2 [Example 179, 4-((1R,5S)-3,8-diazabicyclo[3.2.1]octan-3-yl)-7-(7,8-difluoro-3-hydroxynaphthalen-1-yl)-8-fluoro-2-(((2R,7aS)-2-fluorotetrahydro-1H-pyrrolizin-7a(5H)-yl)methoxy)quinoline-3-carbonitrile] | 550
N#Cc1c(OC[C@@]23CCCN2C[C@H](F)C3)nc2c(F)c(-c3cc(O)cc4cccc(F)c34)ccc2c1N1C[C@H]2CC[C@@H](C1)N2 [Example 180, 4-((1R,5S)-3,8-diazabicyclo[3.2.1]octan-3-yl)-8-fluoro-7-(8-fluoro-3-hydroxynaphthalen-1-yl)-2-(((2R,7aS)-2-fluorotetrahydro-1H-pyrrolizin-7a(5H)-yl)methoxy)quinoline-3-carbonitrile] | 556
CCc1cccc2cc(O)cc(-c3ccc4c(N5C[C@H]6CC[C@@H](C5)N6)c(C#N)c(OC[C@@]56CCCN5C[C@H](F)C6)nc4c3F)c12 [Example 181, 4-((1R,5S)-3,8-diazabicyclo[3.2.1]octan-3-yl)-7-(8-ethyl-3-hydroxynaphthalen-1-yl)-8-fluoro-2-(((2R,7aS)-2-fluorotetrahydro-1H-pyrrolizin-7a(5H)-yl)methoxy)quinoline-3-carbonitrile] | 536
C#Cc1cccc2cc(O)cc(-c3ccc4c(N5C[C@H]6CC[C@@H](C5)N6)c(C#N)c(OC[C@@]56CCCN5C[C@H](F)C6)nc4c3F)c12 [Example 182, 4-((1R,5S)-3,8-diazabicyclo[3.2.1]octan-3-yl)-7-(8-ethynyl-3-hydroxynaphthalen-1-yl)-8-fluoro-2-(((2R,7aS)-2-fluorotetrahydro-1H-pyrrolizin-7a(5H)-yl)methoxy)quinoline-3-carbonitrile] | 533
C#Cc1c(F)ccc2cc(O)cc(-c3ccc4c(N5C[C@H]6CC[C@@H](C5)N6)c(C(F)(F)F)c(OC[C@@]56CCCN5C[C@H](F)C6)nc4c3)c12 [Example 183, 4-(4-((1R,5S)-3,8-diazabicyclo[3.2.1]octan-3-yl)-2-(((2R,7aS)-2-fluorotetrahydro-1H-pyrrolizin-7a(5H)-yl)methoxy)-3-(trifluoromethyl)quinolin-7-yl)-5-ethynyl-6-fluoronaphthalen-2-ol] | > 2500
C#Cc1cccc2cc(O)cc(-c3ccc4c(N5C[C@H]6CC[C@@H](C5)N6)c(C(F)(F)F)c(OC[C@@]56CCCN5C[C@H](F)C6)nc4c3)c12 [Example 184, 4-(4-((1R,5S)-3,8-diazabicyclo[3.2.1]octan-3-yl)-2-(((2R,7aS)-2-fluorotetrahydro-1H-pyrrolizin-7a(5H)-yl)methoxy)-3-(trifluoromethyl)quinolin-7-yl)-5-ethynylnaphthalen-2-ol] | > 2500
C#Cc1c(F)ccc2cc(O)cc(-c3ccc4c(N5C[C@H]6CC[C@@H](C5)N6)c(C(F)(F)F)c(OC[C@@]56CCCN5C[C@H](F)C6)nc4c3F)c12 [Example 185, 4-(4-((1R,5S)-3,8-diazabicyclo[3.2.1]octan-3-yl)-8-fluoro-2-(((2R,7aS)-2-fluorotetrahydro-1H-pyrrolizin-7a(5H)-yl)methoxy)-3-(trifluoromethyl)quinolin-7-yl)-5-ethynyl-6-fluoronaphthalen-2-ol] | 1350
CCc1c(F)ccc2cc(O)cc(-c3ccc4c(N5C[C@H]6CC[C@@H](C5)N6)c(C(F)(F)F)c(OC[C@@]56CCCN5C[C@H](F)C6)nc4c3F)c12 [Example 186, 4-(4-((1R,5S)-3,8-diazabicyclo[3.2.1]octan-3-yl)-8-fluoro-2-(((2R,7aS)-2-fluorotetrahydro-1H-pyrrolizin-7a(5H)-yl)methoxy)-3-(trifluoromethyl)quinolin-7-yl)-5-ethyl-6-fluoronaphthalen-2-ol] | 1420
Oc1cc(-c2ccc3c(N4C[C@H]5CC[C@@H](C4)N5)c(C(F)(F)F)c(OC[C@@]45CCCN4C[C@H](F)C5)nc3c2F)c2c(F)c(F)ccc2c1 [Example 187, 4-(4-((1R,5S)-3,8-diazabicyclo[3.2.1]octan-3-yl)-8-fluoro-2-(((2R,7aS)-2-fluorotetrahydro-1H-pyrrolizin-7a(5H)-yl)methoxy)-3-(trifluoromethyl)quinolin-7-yl)-5,6-difluoronaphthalen-2-ol] | 1410
C#Cc1c(F)ccc2cc(O)cc(-c3cc4nc(OC[C@@]56CCCN5C[C@H](F)C6)c(C#N)c(N5C[C@H]6CC[C@@H](C5)N6)c4cn3)c12 [Example 188, 4-((1R,5S)-3,8-diazabicyclo[3.2.1]octan-3-yl)-7-(8-ethynyl-7-fluoro-3-hydroxynaphthalen-1-yl)-2-(((2R,7aS)-2-fluorotetrahydro-1H-pyrrolizin-7a(5H)-yl)methoxy)-1,6-naphthyridine-3-carbonitrile] | 1550
C#Cc1cccc2cc(O)cc(-c3ncc4c(N5C[C@H]6CC[C@@H](C5)N6)c(C#N)c(OC[C@@]56CCCN5C[C@H](F)C6)nc4c3F)c12 [Example 189, 4-((1R,5S)-3,8-diazabicyclo[3.2.1]octan-3-yl)-7-(8-ethynyl-3-hydroxynaphthalen-1-yl)-8-fluoro-2-(((2R,7aS)-2-fluorotetrahydro-1H-pyrrolizin-7a(5H)-yl)methoxy)-1,6-naphthyridine-3-carbonitrile] | 152
CCc1cccc2cc(O)cc(-c3ncc4c(N5C[C@H]6CC[C@@H](C5)N6)c(C#N)c(OC[C@@]56CCCN5C[C@H](F)C6)nc4c3F)c12 [Example 190, 4-((1R,5S)-3,8-diazabicyclo[3.2.1]octan-3-yl)-7-(8-ethyl-3-hydroxynaphthalen-1-yl)-8-fluoro-2-(((2R,7aS)-2-fluorotetrahydro-1H-pyrrolizin-7a(5H)-yl)methoxy)-1,6-naphthyridine-3-carbonitrile] | 150
C#Cc1c(F)ccc2cc(O)cc(-c3ncc4c(N5C[C@H]6CC[C@@H](C5)N6)c(C#N)c(OC[C@@]56CCCN5C[C@H](F)C6)nc4c3F)c12 [Example 191, 4-((1R,5S)-3,8-diazabicyclo[3.2.1]octan-3-yl)-7-(8-ethynyl-7-fluoro-3-hydroxynaphthalen-1-yl)-8-fluoro-2-(((2R,7aS)-2-fluorotetrahydro-1H-pyrrolizin-7a(5H)-yl)methoxy)-1,6-naphthyridine-3-carbonitrile] | 120
